In patent US7414072B2, “Aryl 5-thio-β-d-glucopyranoside derivatives and therapeutic agents for diabetes containing the same” (Taisho Pharmaceutical Co., Ltd., priority 2002, dated 2008) one finds melting point data, which are given here for 40 compounds.

The term melting point denotes the temperature, or range, at which the solid turns liquid. For `NC(=O)c1ccc(Cc2ccccc2O[C@@H]2S[C@H](CO)[C@@H](O)[C@H](O)[C@H]2O)cc1` [Compound 85, 2′-(4′-carbamoylbenzyl)phenyl 5-thio-β-D-glucopyranoside], the melting point is 215.5 to 216 °C.

The compound `OC[C@H]1S[C@@H](Oc2ccccc2Cc2ccc(C3CC3)cc2)[C@H](O)[C@@H](O)[C@@H]1O` [Compound 90, 2′-(4′-cyclopropylbenzyl)phenyl 5-thio-β-D-glucopyranoside] had a melting point of 148 to 148.5 °C. The figure for `OC[C@H]1S[C@@H](Oc2ccc(Cl)cc2Cc2ccc(Cl)cc2Cl)[C@H](O)[C@@H](O)[C@@H]1O` [Compound 70, 4′-chloro-2′-(2′,4′-dichlorobenzyl)phenyl 5-thio-β-D-glucopyranoside] is 172 to 174 °C. Next, `CCCCc1ccc(Cc2cc(Cl)ccc2O[C@@H]2S[C@H](CO)[C@@H](O)[C@H](O)[C@H]2O)cc1` [Compound 46, 2′-(4′-butylbenzyl)-4′-chlorophenyl 5-thio-β-D-glucopyranoside]: 165 to 168 °C; `OC[C@H]1S[C@@H](Oc2ccc(Cl)cc2Cc2ccc3ccccc3c2)[C@H](O)[C@@H](O)[C@@H]1O` [Compound 71]: 192 to 194 °C; `Cc1csc(Cc2ccccc2O[C@@H]2S[C@H](CO)[C@@H](O)[C@H](O)[C@H]2O)n1` [Compound 37]: 197 to 200 °C. The figure for `CCc1ccc(Cc2cc(Cl)cc(Cl)c2O[C@@H]2S[C@H](CO)[C@@H](O)[C@H](O)[C@H]2O)cc1` [Compound 31, 4′,6′-dichloro-2′-(4′-ethylbenzyl)phenyl 5-thio-β-D-glucopyranoside] is 72 to 80 °C; for `OC[C@H]1S[C@@H](Oc2ccccc2Cc2ccccc2)[C@H](O)[C@@H](O)[C@@H]1O` [Compound 11, 2′-benzylphenyl 5-thio-β-D-glucopyranoside] it is 171 to 174 °C; for `OC[C@H]1S[C@@H](Oc2ccc(Cl)cc2Cc2c(F)cccc2Cl)[C@H](O)[C@@H](O)[C@@H]1O` [Compound 59, 2′-(2′-chloro-6′-fluorobenzyl)-4′-chlorophenyl 5-thio-β-D-glucopyranoside] it is 183.5 to 185 °C. As for `COc1cc(OC)c(Cc2ccccc2O[C@@H]2S[C@H](CO)[C@@H](O)[C@H](O)[C@H]2O)c(OC)c1` [Compound 65, 2′-(2′,4′,6′-trimethoxybenzyl)phenyl 5-thio-β-D-glucopyranoside], the melting point lay within 100 to 105 °C. Next, `CCc1ccc(Cc2cc(C(=O)O)ccc2O[C@@H]2S[C@H](CO)[C@@H](O)[C@H](O)[C@H]2O)cc1` [Compound 16, 4′-carboxy-2′-(4′-ethylbenzyl)phenyl 5-thio-β-D-glucopyranoside]: 219 to 220.5 °C. `O=C(Nc1ccccc1)c1cc(Cl)ccc1O[C@@H]1S[C@H](CO)[C@@H](O)[C@H](O)[C@H]1O` [Compound 27] registered a melting point of 96 to 105 °C. `CCCCOc1ccc(Cc2cc(Cl)ccc2O[C@@H]2S[C@H](CO)[C@@H](O)[C@H](O)[C@H]2O)cc1` [Compound 45, 2′-(4′-butoxybenzyl)-4′-chlorophenyl 5-thio-β-D-glucopyranoside]: the melting point is 166 to 169 °C. The figure for `Cn1cc(Cc2ccccc2O[C@@H]2S[C@H](CO)[C@@H](O)[C@H](O)[C@H]2O)cn1` [Compound 55] is 148.5 to 149.5 °C. The figure for `OC[C@H]1S[C@@H](Oc2ccc(Cl)cc2Cc2ccc(-c3ccccc3)cc2)[C@H](O)[C@@H](O)[C@@H]1O` [Compound 67, 4′-chloro-2′-(4′-phenylbenzyl)phenyl 5-thio-β-D-glucopyranoside] is 187 to 195 °C. `OCc1ccc(Cc2ccccc2O[C@@H]2S[C@H](CO)[C@@H](O)[C@H](O)[C@H]2O)cc1` [Compound 56, 2′-(4′-hydroxymethylbenzyl)phenyl 5-thio-β-D-glucopyranoside] displayed a melting point of 184 to 186.5 °C. The compound `CN(C)c1ccc(Cc2cc(Cl)ccc2O[C@@H]2S[C@H](CO)[C@@H](O)[C@H](O)[C@H]2O)cc1` [Compound 52, 4′-chloro-2′-(4′-N,N-dimethylaminobenzyl)phenyl 5-thio-β-D-glucopyranoside] came in with a melting point of 183 to 184 °C.

The compound `COc1ccc(CNC(=O)c2c(O)cccc2O[C@@H]2S[C@H](CO)[C@@H](O)[C@H](O)[C@H]2O)cc1` [Compound 84, 3′-hydroxy-2′-(4′-methoxybenzylaminocarbonyl)phenyl 5-thio-β-D-glucopyranoside] returned a melting point of 183 to 185 °C.

As for `CCOc1ccccc1Cc1cc(Cl)ccc1O[C@@H]1S[C@H](CO)[C@@H](O)[C@H](O)[C@H]1O` [Compound 81, 4′-chloro-2′-(2′-ethoxybenzyl)phenyl 5-thio-β-D-glucopyranoside], the melting point is 196.5 to 198.5 °C. The figure for `CCc1ccc(Cc2ccccc2O[C@@H]2S[C@H](COC(=O)OC)[C@@H](O)[C@H](O)[C@H]2O)cc1` [Compound 23, 2′-(4′-ethylbenzyl)phenyl 6-O-methoxycarbonyl 5-thio-β-D-glucopyranoside] is 102 to 104.5 °C.

The compound `CCc1ccc(Cc2ccc(COC(C)=O)cc2O[C@@H]2S[C@H](CO)[C@@H](O)[C@H](O)[C@H]2O)cc1` [Compound 77, 5′-(acetoxymethyl)-2′-(4′-ethylbenzyl)phenyl 5-thio-β-D-glucopyranoside] came in with a melting point of 158 to 160 °C. Compound `CCc1ccc(Cc2ccc(O[C@@H]3S[C@H](CO)[C@@H](O)[C@H](O)[C@H]3O)cc2)cc1` [Compound 50] registered a melting point of 137 to 138.5 °C. Take `OC[C@H]1S[C@@H](Oc2ccccc2Cc2ccc(F)cc2)[C@H](O)[C@@H](O)[C@@H]1O` [Compound 9, 2′-(4′-fluorobenzyl)phenyl 5-thio-β-D-glucopyranoside]: the melting point was in the range of 157 to 158.5 °C. The figure for `CCc1ccc(Cc2ccc(OCOC)cc2O[C@@H]2S[C@H](CO)[C@@H](O)[C@H](O)[C@H]2O)cc1` [Compound 20, 2′-(4′-ethylbenzyl)-5′-(methoxymethyloxy)phenyl 5-thio-β-D-glucopyranoside] is 175.5 to 180 °C; for `Cc1ccc(Sc2ccccc2O[C@@H]2S[C@H](CO)[C@@H](O)[C@H](O)[C@H]2O)cc1` [Compound 38] it is 140 to 142 °C; for `OC[C@H]1S[C@@H](Oc2ccc(Cl)cc2Cc2ccc(F)cc2F)[C@H](O)[C@@H](O)[C@@H]1O` [Compound 60, 4′-chloro-2′-(2′,4′-difluorobenzyl)phenyl 5-thio-β-D-glucopyranoside] it is 175.5 to 177 °C. `CCc1ccc(Cc2ccc(O)cc2O[C@@H]2S[C@H](CO)[C@@H](O)[C@H](O)[C@H]2O)cc1` [Compound 21, 2′-(4′-ethylbenzyl)-5′-hydroxyphenyl 5-thio-β-D-glucopyranoside] came in with a melting point of 172 to 173.5 °C. The figure for `CCc1ccc(Cc2ccc(F)cc2O[C@@H]2S[C@H](CO)[C@@H](O)[C@H](O)[C@H]2O)cc1` [Compound 64, 2′-(4′-ethylbenzyl)-5′-fluorophenyl 5-thio-β-D-glucopyranoside] is 156 to 157 °C; for `Cc1ccc(Cc2ccccc2O[C@@H]2S[C@H](CO)[C@@H](O)[C@H](O)[C@H]2O)cc1` [Compound 3, 2′-(4′-methylbenzyl)phenyl 5-thio-β-D-glucopyranoside] it is 184 to 186 °C; for `OC[C@H]1S[C@@H](Oc2ccc(Cl)cc2Cc2ccccc2F)[C@H](O)[C@@H](O)[C@@H]1O` [Compound 44, 4′-chloro-2′-(2′-fluorobenzyl)phenyl 5-thio-β-D-glucopyranoside] it is 170 to 173 °C.

The compound `OC[C@H]1S[C@@H](Oc2ccccc2Cc2ccncc2)[C@H](O)[C@@H](O)[C@@H]1O` [Compound 24] registered a melting point of 179 to 180 °C. The figure for `CCc1ccc(Cc2ccc(CO)cc2O[C@@H]2S[C@H](CO)[C@@H](O)[C@H](O)[C@H]2O)cc1` [Compound 39, 2′-(4′-ethylbenzyl)-5′-(hydroxymethyl)phenyl 5-thio-β-D-glucopyranoside] is 206 to 211 °C.

On to `CCOc1ccc(Cc2ccccc2O[C@@H]2S[C@H](CO)[C@@H](O)[C@H](O)[C@H]2O)cc1` [Compound 5, 2′-(4′-ethoxybenzyl)phenyl 5-thio-β-D-glucopyranoside], for which the melting point lay within 182 to 183.5 °C. The figure for `CCc1ccc(Cc2cc(Cl)ccc2O[C@@H]2S[C@H](CO)[C@@H](O)[C@H](O)[C@H]2O)cc1` [Compound 2, 4′-chloro-2′-(4′-ethylbenzyl)phenyl 5-thio-β-D-glucopyranoside] is 173.5 to 177.5 °C; for `OC[C@H]1S[C@@H](Oc2ccc(Cl)cc2Cc2cccc3ccccc23)[C@H](O)[C@@H](O)[C@@H]1O` [Compound 68] it is 170 to 175 °C. Next, `OC[C@H]1S[C@@H](Oc2ccccc2Cc2ccc(N3CCCCC3)cc2)[C@H](O)[C@@H](O)[C@@H]1O` [Compound 74, 2′-(4′-piperidinobenzyl)phenyl 5-thio-β-D-glucopyranoside]: 156.5 to 160 °C; `CC(=O)Nc1ccc(Cc2cc(Cl)ccc2O[C@@H]2S[C@H](CO)[C@@H](O)[C@H](O)[C@H]2O)cc1` [Compound 47, 2′-(4′-acetylaminobenzyl)-4′-chlorophenyl 5-thio-β-D-glucopyranoside]: 235 to 236.5 °C.

As for `CN(C)C(=O)c1ccc(Cc2ccccc2O[C@@H]2S[C@H](CO)[C@@H](O)[C@H](O)[C@H]2O)cc1` [Compound 86, 2′-(4′-N,N-dimethylaminocarbonylbenzyl)phenyl 5-thio-β-D-glucopyranoside], the melting point lay within 193.5 to 194 °C.

Consider `COc1ccc(Cc2ccccc2O[C@@H]2S[C@H](CO)[C@@H](O)[C@H](O)[C@H]2O)cc1` [Compound 4, 2′-(4′-methoxybenzyl)phenyl 5-thio-β-D-glucopyranoside], for which the melting point lay in the range of 166 to 167.5 °C.

`CCc1ccc(Cc2cc(F)ccc2O[C@@H]2S[C@H](CO)[C@@H](O)[C@H](O)[C@H]2O)cc1` [Compound 8, 2′-(4′-ethylbenzyl)-4′-fluorophenyl 5-thio-β-D-glucopyranoside]: the melting point lay within 163 to 165.5 °C.
